Here are results for one compound from publication PMC9026428, “New Peptide Based Fluconazole Conjugates with Expanded Molecular Targets” (Pharmaceutics, 2022).

The structures appear in SMILES notation.

For the test, the system named is C. albicans SC5314. Description: Membrane permeabilization assay by propidium iodide uptake (flow cytometry, fluorescence microscopy). The test is classed as cell-based, Candida albicans. As to the method: Suspensions of C. albicans SC5314 were prepared by taking one loop of pure culture growth from 24 h YPD agar plates into RPMI 1640 medium and adjusting optical density to 0.1 at 660 nm wavelength. […] The cell suspensions were then treated for 0.5, 2, 4, 6, and 24 h at 37 °C with continuous agitation (180 rpm). The cells were then centrifuged and resuspended in 200 µL of PBS buffer (pH 7.4). Subsequently, cells were treated with propidium iodide (1 mg/mL, final concentration) and incubated for 30 min at room temperature in the dark. Cellular fluorescence was visualized using lens 20×, using Olympus Fluorescence Microscope BX60 (Olympus, Tokyo, Japan). The images were also post-processed utilizing cell Sens program. The fluorescence intensity emitted by DNA-bound propidium iodide was measured using a flow cytometer (Merck Millipore guava easyCyte 8, Darmstadt, Germany). Data were obtained from at least two independent experiments.
Background: A flow cytometer gives signals particle by particle.

Regarding `CC[C@H](C)[C@H](NC(=O)[C@H](CCCCN)NC(=O)[C@H](CCCCN)NC(=O)[C@H](C)NC(=O)[C@H](CC(C)C)NC(=O)[C@H](C)NC(=O)[C@H](C)NC(=O)[C@H](CC(C)C)NC(=O)[C@H](C)NC(=O)[C@H](CCCCN)NC(=O)[C@H](CC(C)C)NC(=O)[C@H](CC(N)=O)NC(=O)[C@@H](NC(=O)[C@H](CCCCN)NC(=O)CNC(=O)[C@H](CC(C)C)NC(=O)[C@H](CC(C)C)NC(=O)[C@H](Cc1ccc(O)cc1)NC(=O)CNC(=O)[C@H](C)NC(=O)CCCC(=O)OC(Cn1cncn1)(Cn1cncn1)c1ccc(F)cc1F)[C@@H](C)CC)C(=O)N[C@@H](CC(C)C)C(N)=O` [FLCpOH-TP10-NH2], the “cell membrane disruption (PI uptake), in words” value is listed as “significant cell membrane damage”.
